Assay [1] addresses T1, C-X-C chemokine receptor type 3 (Homo sapiens, UniProt P49682).
T1 sequence (P49682 whole entry): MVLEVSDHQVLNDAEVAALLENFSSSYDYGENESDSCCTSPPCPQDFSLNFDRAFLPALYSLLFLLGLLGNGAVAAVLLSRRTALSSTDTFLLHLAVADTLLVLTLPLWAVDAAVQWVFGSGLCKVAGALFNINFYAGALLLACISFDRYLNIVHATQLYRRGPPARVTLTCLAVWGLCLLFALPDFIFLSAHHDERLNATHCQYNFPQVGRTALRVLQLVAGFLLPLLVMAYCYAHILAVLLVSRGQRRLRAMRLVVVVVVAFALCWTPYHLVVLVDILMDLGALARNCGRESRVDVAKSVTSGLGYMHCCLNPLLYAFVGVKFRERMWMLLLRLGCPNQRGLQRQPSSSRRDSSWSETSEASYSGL
Nature of the assay: Inhibition of human recombinant CXCR3.

Assay [2] addresses T1, C-X-C chemokine receptor type 3. The assay can be described thus: Inhibition of human wild type CXCR3.
A short description of assay [3]: Inhibition of CXCR4-Y251A mutant (unknown origin). Set-up: species or system Homo sapiens.
Assay [4] concerns the target C-X-C chemokine receptor type 4 (Homo sapiens, UniProt P61073). The assay can be described thus: Binding affinity to CXCR4 (unknown origin) assessed as inhibition constant.
Assay [5] deals with T2, C-X-C chemokine receptor type 2 (Homo sapiens, UniProt P25025).
T2 sequence (P25025 whole entry): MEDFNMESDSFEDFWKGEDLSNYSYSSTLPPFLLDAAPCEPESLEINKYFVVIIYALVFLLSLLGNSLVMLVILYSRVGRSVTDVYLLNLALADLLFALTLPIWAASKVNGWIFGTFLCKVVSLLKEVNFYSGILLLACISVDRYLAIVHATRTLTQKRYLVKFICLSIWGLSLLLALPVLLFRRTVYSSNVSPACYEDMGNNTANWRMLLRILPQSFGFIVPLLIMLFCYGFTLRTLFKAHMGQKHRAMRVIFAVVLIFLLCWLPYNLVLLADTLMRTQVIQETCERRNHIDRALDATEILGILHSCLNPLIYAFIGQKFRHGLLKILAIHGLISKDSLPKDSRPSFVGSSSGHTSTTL
The assay can be described thus: Binding affinity to wild type human CXCR2 assessed as dissociation constant.

In assay [6] the target is C-C chemokine receptor type 2 (Homo sapiens, UniProt P41597). The assay can be described thus: Binding affinity to CCR2 (unknown origin) assessed as inhibition constant.
Sequence of C-C chemokine receptor type 2 (P41597 whole entry): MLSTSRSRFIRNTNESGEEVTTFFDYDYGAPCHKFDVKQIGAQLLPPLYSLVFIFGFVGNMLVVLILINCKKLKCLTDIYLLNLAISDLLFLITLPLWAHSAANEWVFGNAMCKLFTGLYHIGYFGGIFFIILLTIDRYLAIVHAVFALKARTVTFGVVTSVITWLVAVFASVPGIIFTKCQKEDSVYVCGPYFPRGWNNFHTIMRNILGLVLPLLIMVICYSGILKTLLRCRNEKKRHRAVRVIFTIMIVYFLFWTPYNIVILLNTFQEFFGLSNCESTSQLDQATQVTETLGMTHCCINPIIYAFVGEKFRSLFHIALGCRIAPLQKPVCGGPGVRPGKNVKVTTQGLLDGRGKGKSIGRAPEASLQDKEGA
Assay [7] deals with T3, C-C chemokine receptor type 5 (Homo sapiens, UniProt P51681). Nature of the assay: Inhibition of wild type CCR5 (unknown origin).
T3 sequence (P51681 whole entry): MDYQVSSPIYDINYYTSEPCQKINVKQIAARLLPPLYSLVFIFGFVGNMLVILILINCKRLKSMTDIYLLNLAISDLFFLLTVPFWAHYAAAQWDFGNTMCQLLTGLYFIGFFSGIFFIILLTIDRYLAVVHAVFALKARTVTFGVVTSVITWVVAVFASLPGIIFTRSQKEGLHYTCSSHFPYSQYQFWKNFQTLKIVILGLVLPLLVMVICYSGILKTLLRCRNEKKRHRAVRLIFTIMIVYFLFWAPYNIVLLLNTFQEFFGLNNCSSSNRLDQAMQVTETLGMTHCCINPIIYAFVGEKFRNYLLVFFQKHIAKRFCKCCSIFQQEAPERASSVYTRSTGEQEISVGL
Assay [8] addresses T3, C-C chemokine receptor type 5. Nature of the assay: Inhibition of human CCR5.
Assay [9] can be described thus: Binding affinity to CXCR4-Y251A mutant (unknown origin) assessed as […]. Set-up: species or system Homo sapiens.
Assay [10] has as its target C-C chemokine receptor type 8 (Homo sapiens, UniProt P51685). The assay can be described thus: Inhibition of CCR8 mutant (unknown origin).

Molecules are shown by their SMILES.

Sequence of C-X-C chemokine receptor type 4 (P61073 whole entry): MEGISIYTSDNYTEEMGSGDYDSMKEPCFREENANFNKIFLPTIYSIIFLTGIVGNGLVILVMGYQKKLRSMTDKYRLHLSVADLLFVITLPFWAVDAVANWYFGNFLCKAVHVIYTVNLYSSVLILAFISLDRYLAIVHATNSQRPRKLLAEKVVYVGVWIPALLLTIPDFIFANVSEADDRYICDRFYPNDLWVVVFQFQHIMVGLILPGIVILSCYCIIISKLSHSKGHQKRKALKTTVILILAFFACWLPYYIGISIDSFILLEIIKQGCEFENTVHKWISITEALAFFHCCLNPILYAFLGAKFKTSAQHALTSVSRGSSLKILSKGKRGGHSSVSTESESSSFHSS
Sequence of C-C chemokine receptor type 8 (P51685 whole entry, looked up, change not shown): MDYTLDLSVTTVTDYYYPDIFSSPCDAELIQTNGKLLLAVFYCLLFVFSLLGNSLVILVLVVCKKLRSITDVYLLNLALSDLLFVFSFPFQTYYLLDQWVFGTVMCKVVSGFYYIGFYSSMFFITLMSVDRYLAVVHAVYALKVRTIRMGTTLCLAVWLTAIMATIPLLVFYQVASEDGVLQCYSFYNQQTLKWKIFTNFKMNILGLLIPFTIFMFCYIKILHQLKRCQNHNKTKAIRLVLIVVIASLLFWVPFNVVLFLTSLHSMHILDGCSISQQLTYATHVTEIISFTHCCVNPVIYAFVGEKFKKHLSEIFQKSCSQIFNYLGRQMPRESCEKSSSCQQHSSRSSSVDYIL

For `CCOc1ccc(-n2c([C@@H](C)N(Cc3cccnc3)C(=O)Cc3ccc(F)c(C(F)(F)F)c3)nc3ncccc3c2=O)cc1`, the half-inhibitory concentration (IC50) in assay [1] and in assay [2] was 0.0631 µM throughout.
In the case of `CCCCN1C(=O)[C@H](CC2CCCCC2)NC(=O)C12CCN(Cc1ccc(Oc3ccc(C(=O)O)cc3)cc1)CC2`, in assay [3], it took 0.0167 µM to reach half-maximal inhibition (IC50).
Regarding `CCCN(CCC)CCCCN(C)Cc1ccc(CN(Cc2ncc[nH]2)Cc2nccn2C)cc1`, the Ki in assay [4] was determined as 0.00061 µM.
Turning to `C(CCCN1CCCNCCNCCCNCC1)CCN1CCCNCCNCCCNCC1`, the Ki in [4] came to 2.3 µM.
Turning to `CC(=O)N1CCC(C(=O)N(CCCN2CCC(Cc3ccc(C(N)=O)cc3)CC2)c2ccc(C)c(Cl)c2)CC1`, the IC50 in assay [3] is 0.02 µM.
`NCCCC[C@H](NC(=O)[C@@H]1Cc2ccccc2CN1C(=O)CCC(=O)c1ccccc1)C(=O)NCC(c1ccccc1)c1ccccc1` had an IC50 in assay [2] of 1 µM.
In the case of `C[C@H](NC(=O)[C@H](CCCNC(=N)N)NC(=O)c1ccc(CNCc2ccccn2)cc1)c1cccc2ccccc12`, the Ki in assay [4] was 8 µM.
`C[C@H](CO)Nc1nc(SCc2cccc(F)c2F)nc2[nH]c(=O)cnc12`: the Kd in assay [5] is 1 µM.
On to `c1cc(CN2CCCNCCNCCCNCC2)cc(CN2CCCNCCNCCCNCC2)n1`, for which the Ki in assay [4] was 0.85 µM.
On to `C1CNCCNCCCN(CCCN2CCCNCCNCCCNCC2)CCNC1`, for which, in assay [4], the Ki was found to be 0.18 µM.
With `Cc1ccc(CN2CC[C@@H](NC(=O)CNC(=O)c3cccc(C(F)(F)F)c3)C2)c(C)c1`, the Ki in [6] is 0.316 µM.
`Cc1ccc(-c2ccc3c(c2)C=C(C(=O)Nc2ccc(C[N+](C)(C)C4CCOCC4)cc2)CCC3)cc1.[Cl-]`: in assay [6], the Ki was 0.0631 µM. In [2], this molecule had a pIC50 of 4.5. The IC50 in assay [3] is 0.019 µM.
As to `O=C(/C=C/c1ccc(Cl)c(Cl)c1)NCCCCCN1CCC(c2c[nH]c3ccc(O)cc23)CC1`, the Ki in assay [6] is 0.1 µM.
Consider `CCNC(=O)c1cnc(N2CCN(C3CCN(Cc4ccc(Cl)cc4)CC3)[C@@H](CC)C2)c(Cl)c1`, for which the IC50 in [1] and in [2] was 0.0158 µM each time.
`CC[C@@H](NC1C(=O)C(=O)C1Nc1cccc(C(=O)N(C)C)c1O)c1ccc(C)o1` (some centres not stated): in assay [5], the Kd is 10000 µM.
As for `CCCC[C@H]1C[C@@H](N(C)C(C)C)CC[C@H]1NC(=O)CNC(=O)c1cccc(C(F)(F)F)c1`, in assay [7], the IC50 is 0.0025 µM.
The molecule `O=C(C1=C(O)C(=O)N(c2nnc(SCc3ccc(Cl)cc3)s2)C1c1cccs1)c1cc2ccccc2o1` (configuration not stated) gave an IC50 in [8] of 2 µM.
In the case of `O=CNC(=C(Cl)Cl)[P+](c1ccccc1)(c1ccccc1)c1ccccc1.[O-][Cl+3]([O-])([O-])[O-]`, the IC50 in assay [9] was found to be 27 µM.
On to `COc1ccccc1Oc1cccc(CN2CCC(O)(c3ccccc3C(=O)O)CC2)c1`, for which the pIC50 in assay [10] is 7.5.
For the molecule `CCNS(=O)(=O)c1ccc(OC)cc1C1(O)CCN(Cc2cccc(Oc3ccccc3OC)c2)CC1`, the pIC50 in assay [10] is recorded as 7.8.
The molecule `COc1ccccc1Oc1cccc(CN2CCC(NC(=O)C3CC(=O)Nc4ccccc43)CC2)c1` (configuration not stated) displayed a negative-log IC50 (pIC50) in assay [10] of 7.3.
As for `CCO/N=C(\c1ccc(Br)cc1)C1CCN(C2(C)CCN(C(=O)c3c(C)cc[n+]([O-])c3C)CC2)CC1` [ANCRIVIROC], the IC50 in assay [9] came out at 0.016 µM.
On to `Cc1nnc(C(C)C)n1[C@H]1C[C@H]2CC[C@@H](C1)N2CC[C@H](NC(=O)C1CCC(F)(F)CC1)c1ccccc1` [MARAVIROC], for which the IC50 in assay [3] is 0.0002 µM.

(Values after ChEMBL document CHEMBL5260798, “Structural Analysis of Chemokine Receptor-Ligand Interactions” (J Med Chem, 2017).)
